We go through 19 molecules from patent US8846601B2, “Melanocortin receptor-specific peptides” (Palatin Technologies, Inc., priority 2009, dated 2014).

Peptide text beside a SMILES is read from it.

A word on the Ki: it is the equilibrium dissociation constant of an inhibitor or competing ligand from its target.

The target in the first assay is T1, hMC4-R (Homo sapiens (Human), UniProt P32245). Description: Competitive inhibition binding assay using [I125]-NDP-α-MSH, hMC4-R membranes. As to conditions: averaged; [I125]-NDP-α-MSH (values not marked *); read-out: MC4-R Ki. How it is done: A competitive inhibition binding assay is performed using membrane homogenates prepared from HEK-293 cells that express recombinant hMC4-R, hMC3-R, or hMC5-R, and from B-16 mouse melanoma cells (containing endogenous MC1-R). In some instances, HEK-293 cells that express recombinant hMC1-R were employed. In the examples that follow, all MC3-R, MC4-R and MC5-R values are for human recombinant receptors. […] Membrane homogenates were incubated with 0.2 nM (for hMC4-R) 0.4 nM (for MC3-R and MC5-R) or 0.1 nM (for mouse B16 MC1-R or hMC1-R) [I^125]-NDP-α-MSH (Perkin Elmer) and increasing concentrations of test peptides of the present invention in buffer containing 25 mM HEPES buffer (pH 7.5) with 100 mM NaCl, 2 mM CaCl2, 2 mM MgCl2, 0.3 mM 1,10-phenanthroline, and 0.2% bovine serum albumin. After incubation for 60 minutes at 37° C., the assay mixture was filtered and the membranes washed three times with ice-cold buffer. Filters were dried and counted in a gamma counter for bound radioactivity. […] Maximal specific binding (100%) was defined as the difference in radioactivity (cpm) bound to cell membranes in the absence and presence of 1 μM NDP-α-MSH. […] Each assay was conducted in triplicate and the actual mean values are described, with results less than 0% reported as 0%. Ki values for test peptides of the present invention were determined using Graph-Pad Prism® curve-fitting software.
T1 sequence (P32245 whole entry): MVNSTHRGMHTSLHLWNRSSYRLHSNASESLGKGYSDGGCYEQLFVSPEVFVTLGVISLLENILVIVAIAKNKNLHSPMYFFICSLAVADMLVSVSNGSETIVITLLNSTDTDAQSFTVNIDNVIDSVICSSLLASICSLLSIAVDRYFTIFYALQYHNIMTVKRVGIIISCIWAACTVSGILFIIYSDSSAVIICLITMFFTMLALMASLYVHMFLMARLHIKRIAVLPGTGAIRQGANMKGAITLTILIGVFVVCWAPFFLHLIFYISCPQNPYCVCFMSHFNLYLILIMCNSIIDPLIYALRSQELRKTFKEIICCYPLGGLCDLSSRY
For `CC(=O)N[C@@H](CCCNC(=N)N)C(=O)N[C@H]1CCCC(=O)NCC[C@@H](C(N)=O)NC(=O)[C@H](Cc2c[nH]c3ccccc23)NC(=O)[C@H](CCCNC(=N)N)NC(=O)[C@@H](Cc2ccccc2)NC(=O)[C@H](CCC(N)=O)NC1=O` [compound 147, Ac-Arg-cyclo(hGlu-Gln- D-Phe-Arg-Trp-Dab)- NH2], the Ki came out at 20 nM.

For `CC(=O)N[C@@H](CCCNC(=N)N)C(=O)N[C@H]1CCCCNC(=O)C[C@@H](C(N)=O)NC(=O)[C@H](Cc2c[nH]c3ccccc23)NC(=O)[C@H](CCCNC(=N)N)NC(=O)[C@@H](Cc2ccccc2)NC(=O)[C@H](CCC(N)=O)NC1=O` [compound 151, Ac-Arg-cyclo(Lys-Gln- D-Phe-Arg-Trp-Asp)- NH2] (HELM PEPTIDE1{[ac].R.K.Q.[dF].R.W.D.[am]}$PEPTIDE1,PEPTIDE1,3:R3-8:R3$$$V2.0), the Ki worked out at 4 nM.

In the case of `CCCCC(=O)N[C@H]1CCC(=O)NCC[C@@H](C(=O)N[C@@H](Cc2c[nH]c3ccccc23)C(N)=O)NC(=O)[C@H](CCCNC(=N)N)NC(=O)[C@@H](Cc2ccccc2)NC(=O)[C@H](Cc2c[nH]cn2)NC1=O` [compound 153, n-C4H9—CO-cyclo(Glu- His-D-Phe-Arg-Dab)- Trp-NH2], the Ki was 365 nM.

With `CC(=O)N[C@@H](CCCN)C(=O)N[C@H]1CCCNC(=O)CC[C@@H](C(N)=O)NC(=O)[C@H](Cc2c[nH]c3ccccc23)NC(=O)[C@H](CCCNC(=N)N)NC(=O)[C@@H](Cc2ccccc2)NC(=O)[C@H](CC(N)=O)NC1=O` [compound 158, Ac-Orn-cyclo(Orn-Asn- D-Phe-Arg-Trp-Glu)- NH2] (HELM PEPTIDE1{[ac].[Orn].[Orn].N.[dF].R.W.E.[am]}$PEPTIDE1,PEPTIDE1,3:R3-8:R3$$$V2.0), the Ki was 50 nM.

A further assay deals with T1, hMC4-R. Description: Competitive binding assay using Eu-NDP-α-MSH (TRF), hMC4-R membranes. As to conditions: averaged; Eu-NDP-α-MSH (values marked *); read-out: MC4-R Ki. How it is done: Alternatively, a competitive inhibition binding assay was performed employing Eu-NDP-α-MSH (PerkinElmer Life Sciences catalog No. AD0225) with determination by time-resolved fluorometry (TRF) of the lanthanide chelate. […] After incubation for 90 minutes at 37° C., the reaction was stopped by filtration over AcroWell 96-well filter plates (Pall Life Sciences). The filter plates were washed 4 times with 200 μL of ice-cold phosphate-buffered saline. DELFIA Enhancement solution (PerkinElmer Life Sciences) was added to each well. […] Each assay was conducted in duplicate and mean values were utilized. Ki values were determined by curve-fitting with Graph-Pad Prism® software using a one-site fixed-slope competition binding model.
For `CC(=O)N[C@@H](CCCNC(=N)N)C(=O)N[C@H]1CC(=O)NCCCC[C@@H](C(N)=O)NC(=O)[C@H](Cc2c[nH]c3ccccc23)NC(=O)[C@H](CCCCN)NC(=O)[C@@H](Cc2ccccc2)NC(=O)[C@H](Cc2c[nH]cn2)NC1=O` [compound 6, Ac-Arg-cyclo(Asp-His- D-Phe-Lys-Trp-Lys)- NH2] (HELM PEPTIDE1{[ac].R.D.H.[dF].K.W.K.[am]}$PEPTIDE1,PEPTIDE1,3:R3-8:R3$$$V2.0), the inhibitory constant (Ki) was 533 nM.

On to `CC(=O)N[C@@H](CCCNC(=N)N)C(=O)N[C@H]1CC(=O)NCCCC[C@@H](C(N)=O)NC(=O)[C@H](Cc2c[nH]c3ccccc23)NC(=O)[C@H](CCCCN)NC(=O)[C@@H](Cc2ccccc2)NC(=O)[C@H](CCCCN)NC1=O` [compound 7, Ac-Arg-cyclo(Asp-Lys- D-Phe-Lys-Trp-Lys)- NH2] (HELM PEPTIDE1{[ac].R.D.K.[dF].K.W.K.[am]}$PEPTIDE1,PEPTIDE1,3:R3-8:R3$$$V2.0), for which the Ki was found to be 2960 nM.

For the molecule `CC(=O)N[C@@H](CCCNC(=N)N)C(=O)N[C@H]1CC(=O)NCCCC[C@@H](C(N)=O)NC(=O)[C@H](Cc2c[nH]c3ccccc23)NC(=O)[C@H](CCCCN)NC(=O)[C@@H](Cc2ccccc2)NC(=O)[C@H](C)NC1=O` [compound 8, Ac-Arg-cyclo(Asp-Ala- D-Phe-Lys-Trp-Lys)- NH2] (HELM PEPTIDE1{[ac].R.D.A.[dF].K.W.K.[am]}$PEPTIDE1,PEPTIDE1,3:R3-8:R3$$$V2.0), the Ki stood at 3020 nM.

With `CC(=O)N[C@@H](CCCNC(=N)N)C(=O)N[C@H]1CC(=O)NCCCC[C@@H](C(N)=O)NC(=O)[C@H](Cc2c[nH]c3ccccc23)NC(=O)[C@H](CCCNC(=N)N)NC(=O)[C@@H](Cc2ccccc2)NC(=O)[C@H](Cc2ccc(O)cc2)NC1=O` [compound 11, Ac-Arg-cyclo(Asp-Tyr- D-Phe-Arg-Trp-Lys)- NH2] (HELM PEPTIDE1{[ac].R.D.Y.[dF].R.W.K.[am]}$PEPTIDE1,PEPTIDE1,3:R3-8:R3$$$V2.0), the inhibition constant (Ki) was determined as 43 nM.

Take `CC(=O)N[C@@H](CCCNC(=N)N)C(=O)N[C@H]1CC(=O)NCCCC[C@@H](C(N)=O)NC(=O)[C@H](Cc2c[nH]c3ccccc23)NC(=O)[C@H](CCCNC(=N)N)NC(=O)[C@@H](Cc2ccccc2)NC(=O)[C@H](CC(C)C)NC1=O` [compound 12, Ac-Arg-cyclo(Asp-Leu- D-Phe-Arg-Trp-Lys)- NH2] (HELM PEPTIDE1{[ac].R.D.L.[dF].R.W.K.[am]}$PEPTIDE1,PEPTIDE1,3:R3-8:R3$$$V2.0): the Ki is 33 nM.

For `CC(=O)N[C@@H](CCCNC(=N)N)C(=O)N[C@H]1CC(=O)NCCCC[C@@H](C(N)=O)NC(=O)[C@H](Cc2c[nH]c3ccccc23)NC(=O)[C@H](CCCNC(=N)N)NC(=O)[C@@H](Cc2ccccc2)NC(=O)[C@@H]2C[C@@H](OCc3ccccc3)CN2C1=O` [compound 15, Ac-Arg-cyclo(Asp- Hyp(Bzl)-D-Phe-Arg- Trp-Lys)-NH2], the Ki came to 0.7 nM.

For the molecule `CC(=O)N[C@@H](CCCNC(=N)N)C(=O)N[C@H]1CC(=O)NCCCC[C@@H](C(N)=O)NC(=O)[C@H](Cc2c[nH]c3ccccc23)NC(=O)[C@H](CCCNC(=N)N)NC(=O)[C@@H](Cc2ccccc2)NC(=O)[C@@H]2C[C@@H](Cc3ccccc3)CN2C1=O` [compound 18, Ac-Arg-cyclo(Asp- Pro(4R-Bzl)-D-Phe-Arg- Trp-Lys)-NH2], the Ki is 3 nM.

As to `CC(=O)N[C@@H](CCCNC(=N)N)C(=O)N[C@H]1CC(=O)NCCCC[C@@H](C(N)=O)NC(=O)[C@H](Cc2c[nH]c3ccccc23)NC(=O)[C@H](CCCNC(=N)N)NC(=O)[C@@H](Cc2ccccc2)NC(=O)[C@H](CCCNC(=N)N)NC1=O` [compound 28, Ac-Arg-cyclo(Asp-Arg- D-Phe-Arg-Trp-Lys)- NH2], the Ki came to 4 nM.

As for `CC[C@H](C)[C@@H]1NC(=O)[C@@H](NC(=O)[C@H](CCCNC(=N)N)NC(C)=O)CC(=O)NCCCC[C@@H](C(N)=O)NC(=O)[C@H](Cc2c[nH]c3ccccc23)NC(=O)[C@H](CCCNC(=N)N)NC(=O)[C@@H](Cc2ccccc2)NC1=O` [compound 34, Ac-Arg-cyclo(Asp-Ile-D- Phe-Arg-Trp-Lys)-NH2] (HELM PEPTIDE1{[ac].R.D.I.[dF].R.W.K.[am]}$PEPTIDE1,PEPTIDE1,3:R3-8:R3$$$V2.0), the Ki worked out at 19 nM.

Turning to `CC(=O)N[C@@H](CCCNC(=N)N)C(=O)N[C@H]1CC(=O)NCCCC[C@@H](C(N)=O)NC(=O)[C@H](Cc2c[nH]c3ccccc23)NC(=O)[C@H](CCCNC(=N)N)NC(=O)[C@@H](Cc2ccccc2)NC(=O)[C@H]([C@@H](C)O)NC1=O` [compound 35, Ac-Arg-cyclo(Asp-Thr- D-Phe-Arg-Trp-Lys)- NH2] (HELM PEPTIDE1{[ac].R.D.T.[dF].R.W.K.[am]}$PEPTIDE1,PEPTIDE1,3:R3-8:R3$$$V2.0), the Ki stood at 140 nM.

On to `CSCC[C@@H]1NC(=O)[C@@H](NC(=O)[C@H](CCCNC(=N)N)NC(C)=O)CC(=O)NCCCC[C@@H](C(N)=O)NC(=O)[C@H](Cc2c[nH]c3ccccc23)NC(=O)[C@H](CCCNC(=N)N)NC(=O)[C@@H](Cc2ccccc2)NC1=O` [compound 38, Ac-Arg-cyclo(Asp-Met- D-Phe-Arg-Trp-Lys)- NH2] (HELM PEPTIDE1{[ac].R.D.M.[dF].R.W.K.[am]}$PEPTIDE1,PEPTIDE1,3:R3-8:R3$$$V2.0), for which the Ki stood at 35 nM.

As for `CC(=O)N[C@@H](CCCNC(=N)N)C(=O)N[C@H]1CC(=O)NCCCC[C@@H](C(N)=O)NC(=O)[C@H](Cc2c[nH]c3ccccc23)NC(=O)[C@H](CCCNC(=N)N)NC(=O)[C@@](C)(Cc2ccccc2)NC(=O)[C@H](Cc2c[nH]cn2)NC1=O` [compound 60, Ac-Arg-cyclo(Asp-His- D-(alpha-Me)Phe-Arg- Trp-Lys)-NH2], the Ki was 47 nM.

In the case of `CC(=O)N[C@@H](CCCNC(=N)N)C(=O)N[C@H]1CC(=O)NCCCC[C@@H](C(N)=O)NC(=O)[C@H](Cc2c[nH]c3ccccc23)NC(=O)[C@H](CCCNC(=N)N)NC(=O)[C@@H](Cc2ccccc2)NC(=O)[C@H](CN)NC1=O` [compound 62, Ac-Arg-cyclo(Asp-Dap- D-Phe-Arg-Trp-Lys)- NH2], the inhibition constant (Ki) came out at 80 nM.

For `CC(=O)N[C@H](CCCNC(=N)N)C(=O)N[C@H]1CC(=O)NCCCC[C@@H](C(N)=O)NC(=O)[C@H](Cc2c[nH]c3ccccc23)NC(=O)[C@H](CCCNC(=N)N)NC(=O)[C@@H](Cc2ccccc2)NC(=O)[C@H](C)NC1=O` [compound 70, Ac-D-Arg-cyclo(Asp- Ala-D-Phe-Arg-Trp- Lys)-NH2], the inhibitory constant (Ki) stood at 46 nM.

As for `CC(=O)N[C@H](CCCNC(=N)N)C(=O)N[C@H]1CC(=O)NCCCC[C@@H](C(N)=O)NC(=O)[C@H](Cc2c[nH]c3ccccc23)NC(=O)[C@H](CCCNC(=N)N)NC(=O)[C@@H](Cc2ccccc2)NC(=O)[C@@H]2C[C@@H](Cc3ccccc3)CN2C1=O` [compound 72, Ac-D-Arg-cyclo(Asp- Pro(4R-Bzl)-D-Phe-Arg- Trp-Lys)-NH2], the Ki amounted to 2 nM.
